Assay results reported in publication PMC5224920, “Assessing the mechanism and therapeutic potential of modulators of the human Mediator complex-associated protein kinases” (eLife, 2016).

Assays:
p-STAT1^SER727 = assay: p-STAT1 SER727 in rat spleen in toleration study; type: in vivo; conditions: 6 hr post-treatment, all doses tested
Excerpt: Our aim was to determine if there was a therapeutic window for the compounds, using PK/PD and efficacy data determined in our mouse models as a guide. Following daily doses of compound 3 or 4 for 14 days in rats we detected significant, adverse alterations in multiple organ systems and tissues (Table 1). […] Other adverse pathomorphological findings included necrotic and apoptotic cell lesions in the exocrine pancreas, gastrointestinal mucosa (stomach and duodenum), male reproductive tract (Figure 7), mammary gland, skin (hair follicle), heart (valvular interstitial cells) and lymphatic tissues (thymus, spleen, lymph nodes). Proliferative lesions were found in the lungs (bronchiolar epithelium and smooth muscle cells), liver (bile ducts and smooth muscle cells of hepatic arteries), thymus (epithelium free areas), mammary gland, male reproductive system and heart (valvular interstitial cells) (Table 1).
Figure 7. Examples of degenerative and proliferative lesions in rats treated with CDK8/19 ligands 3 or 4. (A) Intact proliferative zone in the bone growth plate of a control rat. (B) Dysplastic proliferative zone, showing disturbance of regular endochondrial ossification, from a rat treated with 20 mg/kg 3. Scale bar in A and B = 100 µm. (C) Intact epididymides, with epididymal cells, isolated from a control rat. […]

SW837 = assay: 14 d colony growth assay, SW837; type: cell-based, human; conditions: 350 nM, mean (range), n = 2
SW948 = assay: 14 d colony growth assay, SW948; type: cell-based, human; conditions: 350 nM, mean (range), n = 2

Structure (SMILES)	Inhibition of STAT1^SER727 phosphorylation (p-STAT1^SER727) [%]	14 d colony growth (relative to control) (SW837)	14 d colony growth (relative to control) (SW948)
Cn1ncc2cc(-c3cnc(N)c(Cl)c3N3CCC4(CCNC4=O)CC3)ccc21 [CMPD 3]	80	–	–
Cc1n[nH]c2ncc(C(=O)N3CCC[C@H]3c3ccc(Cl)cc3)cc12 [CMPD 4]	–	0.54 (0.03)	0.13 (0.02)
